In the supplement of paper PMC10307832:

Assays:
Assay in all cases: relative viability (nuclei count vs DMSO), 5 days (fraction); higher = more cells survive
[1] = compound: Cn1cc(-c2cnn3c(N)c(Br)c([C@@H]4CCCNC4)nc23)cn1
Procedure, shortened: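 Five library-drug doses, separated by factors of √10, were pinned into 1536-well plates holding lung cancer cell lines after an overnight stay at 37 °C. Cells were fixed, permeabilised and Hoechst-stained in one step after 5 days without medium change, then imaged at 4×. Viability compares treated-well with vehicle-well nuclei, counted in MetaXpress, as a median across plates. Passing plates had control CV below 25% and at least one doubling.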

[2] = compound: Cn1cc(-c2cnn3c(N)c(Br)c([C@@H]4CCCNC4)nc23)cn1 + N=C(N)NC(=N)NCCc1ccccc1 [Phenformin] (partner 250 µM)
Procedure, shortened: (§1)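 Dosing by pin tool came one day after lung cancer cell lines were seeded in 1536-well plates, using either one drug or a fixed anchor-drug dose plus five library-drug doses (not always all listed) in √10 steps. After 5 days, nuclei were counted on 4× images. Relative viability is treated-well nuclei count divided by vehicle-well nuclei count, and values are medians of duplicate plates.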

[3] = compound: Cn1cc(-c2cnn3c(N)c(Br)c([C@@H]4CCCNC4)nc23)cn1 + COc1cccc2cc(-c3nc([C@H]4CC[C@H](C(=O)O)CC4)n4ncnc(N)c34)[nH]c12 [OSI-027] (partner 0.5 µM)
Procedure, shortened: as §1

[4] = compound: Cn1cc(-c2cnn3c(N)c(Br)c([C@@H]4CCCNC4)nc23)cn1 + CC(=O)Nc1cccc(-n2c(=O)n(C3CC3)c(=O)c3c(Nc4ccc(I)cc4F)n(C)c(=O)c(C)c32)c1 [Trametinib] (partner 0.02 µM)
Procedure, shortened: as §1

Cell Line | relative viability ([1]; 0.05 µM) | relative viability ([1]; 0.1581 µM) | relative viability ([1]; 0.5 µM) | relative viability ([1]; 1.581 µM) | relative viability ([1]; 5 µM) | relative viability ([2]; first compound 0.1581 µM) | relative viability ([2]; first compound 0.5 µM) | relative viability ([2]; first compound 1.581 µM) | relative viability ([2]; first compound 5 µM) | relative viability ([3]; first compound 0.1581 µM) | relative viability ([3]; first compound 0.5 µM) | relative viability ([3]; first compound 1.581 µM) | relative viability ([3]; first compound 5 µM) | relative viability ([4]; first compound 0.05 µM) | relative viability ([4]; first compound 0.1581 µM) | relative viability ([4]; first compound 0.5 µM) | relative viability ([4]; first compound 1.581 µM) | relative viability ([4]; first compound 5 µM) | relative viability ([2]; first compound 0.05 µM) | relative viability ([3]; first compound 0.05 µM)
HCC-78 | 1 | 1.04 | 1.09 | 0.957 | 0.749 | 0.687 | 0.796 | 0.7 | 0.605 | 0.347 | 0.345 | 0.354 | 0.517 | 0.822 | 1.14 | 0.834 | 0.844 | 0.674 | – | –
HCC-366 | 1.04 | 1.04 | 0.984 | 1.06 | 0.944 | 0.67 | 0.618 | 0.558 | 0.507 | 1.19 | 0.945 | 0.959 | 0.952 | 0.388 | 0.311 | 0.301 | 0.284 | 0.286 | 0.617 | 1.03
HCC-827 | 0.971 | 1.08 | 1.07 | 1.12 | 0.945 | 0.452 | 0.368 | 0.388 | 0.389 | 0.907 | 0.71 | 0.715 | 0.705 | 0.499 | 0.541 | 0.556 | 0.549 | 0.444 | 0.289 | 0.731
HOP-62 | 1.07 | 1.16 | 0.956 | 1.01 | 0.812 | 0.866 | 0.737 | 0.527 | 0.62 | 1.08 | 0.825 | 0.555 | 0.562 | 0.354 | 0.376 | 0.404 | 0.339 | 0.34 | 0.648 | 0.831
IA-LM | 0.917 | 0.976 | 1.05 | 0.779 | 0.541 | – | – | – | – | – | – | – | – | – | – | – | – | – | – | –
LC-2-ad | 1.02 | 1.05 | 1.02 | 0.899 | 1.04 | 0.643 | 0.64 | 0.539 | 0.529 | 0.879 | 0.905 | 0.884 | 0.736 | 0.974 | 0.986 | 0.935 | 0.931 | 0.961 | 0.558 | 0.806
LCLC-97TM1 | 0.982 | 1.11 | 1.1 | 0.969 | 0.925 | 0.47 | 0.464 | 0.458 | 0.411 | 0.558 | 0.545 | 0.391 | 0.487 | 0.151 | 0.202 | 0.182 | 0.207 | 0.224 | 0.499 | 0.459
LCLC-103H | 1.03 | 0.986 | 1.05 | 0.909 | 1.03 | 0.338 | 0.364 | 0.3 | 0.299 | 0.43 | 0.516 | 0.405 | 0.389 | 0.641 | 0.7 | 0.717 | 0.677 | 0.684 | 0.297 | 0.433
LK-2 | 1.04 | 0.951 | 0.836 | 0.729 | 0.711 | 0.471 | 0.258 | – | 0.286 | 0.162 | 0.172 | 0.179 | 0.168 | 0.974 | 1.05 | 0.719 | 0.626 | 0.625 | 0.374 | 0.146
